# Target: T1, human Polq polymerase domain (Homo sapiens, UniProt O75417)
# T1 sequence (O75417 1792-2590): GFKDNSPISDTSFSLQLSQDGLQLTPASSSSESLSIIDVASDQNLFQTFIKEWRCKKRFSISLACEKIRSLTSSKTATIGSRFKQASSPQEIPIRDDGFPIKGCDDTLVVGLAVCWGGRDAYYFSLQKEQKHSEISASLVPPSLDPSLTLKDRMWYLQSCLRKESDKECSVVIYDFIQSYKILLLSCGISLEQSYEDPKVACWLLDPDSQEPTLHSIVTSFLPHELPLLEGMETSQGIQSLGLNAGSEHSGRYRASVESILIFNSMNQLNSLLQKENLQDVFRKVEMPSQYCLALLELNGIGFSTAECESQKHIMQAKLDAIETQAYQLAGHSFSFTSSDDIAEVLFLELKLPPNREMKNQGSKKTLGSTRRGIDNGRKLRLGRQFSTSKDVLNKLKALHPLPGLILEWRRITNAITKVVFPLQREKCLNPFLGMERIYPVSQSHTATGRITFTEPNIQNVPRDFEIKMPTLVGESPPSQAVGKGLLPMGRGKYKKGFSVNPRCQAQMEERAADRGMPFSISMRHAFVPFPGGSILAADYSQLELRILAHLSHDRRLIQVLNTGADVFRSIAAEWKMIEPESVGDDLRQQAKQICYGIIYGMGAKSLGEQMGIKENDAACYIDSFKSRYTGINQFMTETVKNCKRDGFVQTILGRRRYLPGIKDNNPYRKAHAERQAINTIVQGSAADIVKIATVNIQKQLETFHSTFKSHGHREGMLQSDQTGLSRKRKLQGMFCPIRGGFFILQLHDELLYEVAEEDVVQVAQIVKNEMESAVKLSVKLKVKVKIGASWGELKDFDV
# Test: Cy5 fluorescence assay of Polq polymerase domain inhibition
# Assay type: biochemical
# Details: not given
# Procedure: The following Cy5 fluorescence assay was used to measure the ability of compounds to inhibit Polq polymerase domain in vitro. The fluorescent based assay was performed as follows: 60 nM of the pre-annealed primer-template containing a 5′ Cy5 fluorophore conjugated template strand (SEQ ID NO:3: 5′-/5Cy5/[…]-3′), a downstream complementary oligo conjugated with a 3′ Blackhole quencher (SEQ ID NO:4: 5′-CTAAGCTCACAGTG/3IAbRQSp/-3′) and a primer strand (SEQ ID NO:5: 5′-CTGTCCTGCATGATG-3′) was mixed with 50 uM 2′-deoxyribonucleoside triphosphates (dNTPs), 0.1 mg/mL Bovine serum albumin (BSA), 0.01% NP-40, 10% glycerol, 1 mM dithiothreitol (DTT), 10 mM MgCl2, 25 mM TrisHCl pH 7.8 in the presence of 2.5% DMSO with or without various concentrations (7-point dilution series) of Polq small molecule inhibitors represented by Formula I at 37 °C in a volume of 40 μL.
row,Structure (SMILES),IC50 [nM]
1,"CN(C(=O)Oc1c(N2CCN(CCN3CCOCC3)C2=O)cc(C(F)(F)F)cc1C(F)(F)F)c1ccc(F)cc1 [Example 1, 2-(3-(2-morpholinoethyl)-2-oxoimidazolidin-1-yl)-4,6-bis(trifluoromethyl)phenyl (4-fluorophenyl)(methyl)carbamate]",12
2,"CC(=O)N1CCN(CCN2CCN(c3cc(C(F)(F)F)cc(C(F)(F)F)c3OC(=O)N(C)c3ccc(F)cc3)C2=O)CC1 [Example 2, 2-(3-(2-(4-acetylpiperazin-1-yl)ethyl)-2-oxoimidazolidin-1-yl)-4,6-bis(trifluoromethyl)phenyl (4-fluorophenyl)(methyl)carbamate]",4.5
3,"CN(C(=O)Oc1c(N2CCN(CCN3CCC(C#N)CC3)C2=O)cc(C(F)(F)F)cc1C(F)(F)F)c1ccc(F)cc1 [Example 3, 2-(3-(2-(4-cyanopiperidin-1-yl)ethyl)-2-oxoimidazolidin-1-yl)-4,6-bis(trifluoromethyl)phenyl (4-fluorophenyl)(methyl)carbamate]",6
4,"CN(C(=O)Oc1c(N2CCNC2=O)cc(C(F)(F)F)cc1C(F)(F)F)c1ccc(F)cc1 [Example 4, 2,4-bis(trifluoromethyl)-6-(2-oxoimidazolidin-1-yl)phenyl (4-fluorophenyl)(methyl)carbamate]",3.4
5,"CN(C(=O)Oc1c(N2CCNC2=O)cc(C(F)(F)F)cc1C(F)(F)F)c1ccc(F)c(Cl)c1F [Example 7, 2,4-bis(trifluoromethyl)-6-(2-oxoimidazolidin-1-yl)phenyl (3-chloro-2,4-difluorophenyl)(methyl)carbamate]",4
6,"CN1CCN(c2cc(C(F)(F)F)cc(C(F)(F)F)c2OC(=O)N(C)c2ccc(F)c(Cl)c2F)C1=O [Example 8, 2,4-bis(trifluoromethyl)-6-(3-methyl-2-oxoimidazolidin-1-yl)phenyl (3-chloro-2,4-difluorophenyl)(methyl)carbamate]",3.4
7,"CN(C(=O)Oc1c(N2CCNC2=O)cc(C(F)(F)F)cc1C(F)(F)F)c1cc(Cl)c(F)cc1F [Example 9, 2,4-bis(trifluoromethyl)-6-(2-oxoimidazolidin-1-yl)phenyl (5-chloro-2,4-difluorophenyl)(methyl)carbamate]",21
8,"CN(C(=O)Oc1c(N2CCCC2=O)cc(C(F)(F)F)cc1C(F)(F)F)c1ccc(F)cc1 [Example 10, 2,4-bis(trifluoromethyl)-6-(2-oxopyrrolidin-1-yl)phenyl (4-fluorophenyl)(methyl)carbamate]",21
9,"Cc1cc(C(F)(F)F)cc(N2C[C@H](O)CC2=O)c1OC(=O)N(C)c1ccc(F)cc1 [Example 12, (R)-2-(4-hydroxy-2-oxopyrrolidin-1-yl)-6-methyl-4-(trifluoromethyl)phenyl (4-fluorophenyl)(methyl)carbamate]",4.4
10,"Cc1cc(C(F)(F)F)cc(N2CCNC2=O)c1OC(=O)N(C)c1ccc(F)cc1 [Example 13, 2-methyl-6-(2-oxoimidazolidin-1-yl)-4-(trifluoromethyl)phenyl(4-fluorophenyl)(methyl)carbamate]",29
11,"Cc1cc(C(F)(F)F)cc(N2CCNC2=O)c1OC(=O)N(C)c1ccc(F)c(Cl)c1 [Example 14, 2-methyl-6-(2-oxoimidazolidin-1-yl)-4-(trifluoromethyl)phenyl (3-chloro-4-fluorophenyl)(methyl)carbamate]",45

# Same assay, conditions: 5 nM Polq polymerase domain (residues 1792-2590), 60 nM primer-template, 50 uM dNTPs, 37 °C, 18 min; read-out: IC50 (nM) Polq
row,Structure (SMILES),IC50 [nM]
1,"CN1CCN(c2cc(C(F)(F)F)cc(C(F)(F)F)c2OC(=O)N(C)c2ccc(F)cc2)C1=O [Example 5, 2,4-bis(trifluoromethyl)-6-(3-methyl-2-oxoimidazolidin-1-yl)phenyl (4-fluorophenyl)(methyl)carbamate]",6
2,"CN(C(=O)Oc1c(N2CCCC2)cc(C(F)(F)F)cc1C(F)(F)F)c1ccc(F)cc1 [Example 11, 2,4-bis(trifluoromethyl)-6-(pyrrolidin-1-yl)phenyl 4-fluorophenylmethylcarbamate]",15
3,"Cc1cc(C(F)(F)F)cc(N2CCOC2=O)c1OC(=O)N(C)c1ccc(F)cc1 [Example 15, 4-(trifluoromethyl)-2-methyl-6-(2-oxooxazolidin-3-yl)phenyl 4-fluorophenylmethylcarbamate]",80

# — US20260356820A1, “Pyrrolidine and Imidazolidine Based DNA Polymerase Theta Inhibitors and Use Thereof” (Thomas Jefferson University, priority 2022, published 2026)
